According to PMC8786148, “The effects of magainin 2-derived and rationally designed antimicrobial peptides on Mycoplasma pneumoniae” (PLoS ONE, 2022):
Marks after values point to notes of the source that are not given here.

Experiments:
[1] = tested on: M. pneumoniae strains FH, M52, Mac, Bru, and M129-B7; test: Propidium iodide (PI) uptake assay, membrane disruption; type: cell-based, Mycoplasma pneumoniae; conditions: 10 μmol/L AMP, PI 5 μg/mL in PBS, triplicate
Protocol: We performed the PI uptake assays based on the previously described method with modification for M. pneumoniae. M. pneumoniae strains FH, M52, Mac, Bru, and M129-B7 were cultured as described above. Briefly, the 90 mL culture was done in PPLO-based medium for 6 days to observe the medium color change from red to yellow. The mycoplasma in the culture medium was centrifuged at 11,740g for 30 min at 4°C, and the precipitation was suspended in 20 mL phosphate buffered saline (PBS) by passing through a 60 mm-length 25-gauge needle (Top Corporation, Tokyo, Japan) three times. The suspension was centrifuged again at 11,740g for 30 min at 4°C, and 2.25 mL PBS was added to the precipitation. The 2× mycoplasma suspension was prepared by passing through a 60 mm-length 25-gauge needle five times. When using heat-killed M. pneumoniae (HKMp), the 2× suspension was heated at 95°C for 10 min. The 2× PI assay reaction mix based on PBS containing 20 μmol/L of an antimicrobial peptide or saline, and 10 μg/mL PI (Dojindo, Tokyo, Japan). Each assay was performed with a 96-well black flat-bottomed plate (PerkinElmer, Waltham, MA, USA) using a final cell volume of 100 μL prepared by mixing 2× mycoplasma suspension and 2× PI assay reaction mix at 1:1 in volume ratio. The intercalation fluorescence of PI was measured by using an Infinite 200 Pro F Plex microplate reader (Tecan, Zürich, Switzerland) every 2 min, with an excitation filter at 535 nm (half width: 25 nm) and an emission filter at 620 nm (half width: 20 nm). The averages and standard deviations of the fluorescent intensities was calculated, and normalised by an average fluorescence between 10 and 20 min of HKMp as 100% relative fluorescence, and by a minimum average fluorescence between 0 and 20 min of whole data as 0% relative fluorescence.

Staphylococcus aureus = tested on: Staphylococcus aureus; parameters: method as in PMID 28789896, PMID 31303986, PMID 33369262; conditions: previously reported; cited from earlier work
[2] = tested on: Staphylococcus epidermidis; parameters: method as in PMID 28789896, PMID 31303986, PMID 33369262; conditions: previously reported; cited from earlier work
Escherichia coli = tested on: Escherichia coli; parameters: method as in PMID 28789896, PMID 31303986, PMID 33369262; conditions: previously reported; cited from earlier work
Pseudomonas aeruginosa = tested on: Pseudomonas aeruginosa; parameters: method as in PMID 28789896, PMID 31303986, PMID 33369262; conditions: previously reported; cited from earlier work
Mycoplasma pneumoniae FH [3] = test: Killing assay, strain FH; conditions: 30 μmol/L AMP, 3 days; for Killing assay result compared with saline: Welch's t test, p < 0.005; for Cell numbers (CFU/mL) after treatment with antimicrobial peptides, killing assay: initial 10^6 CFU/mL, triplicate, mean, saline 3.59×10^6
Mycoplasma pneumoniae FH [4] = test: Biofilm assay (crystal violet, absorbance at 550 nm), strain FH; conditions: initial 10^5 CFU/mL; for Effect in the biofilm assay: 0% CO2, up to 30 μmol/L; for Concentration with statistically significant effect in the biofilm assay: 0% CO2, 6-8 days at 37°C, p < 0.005, Shirley-Williams test
[5] = tested on: Mycoplasma pneumoniae M129-B7; test: Colorimetric and biofilm assays, strain M129-B7; type: cell-based; conditions: strain M129-B7; biofilm assay; p < 0.005
[6] = tested on: Mycoplasma pneumoniae Bru; test: Killing assay, strain Bru; conditions: AMP 30 μmol/L, 3 days, initial 10^6 CFU/mL, triplicate, mean, saline 3.48×10^6
[7] = tested on: Mycoplasma pneumoniae Mac; test: Killing assay, strain Mac; conditions: AMP 30 μmol/L, 3 days, initial 10^6 CFU/mL, triplicate, mean, saline 4.19×10^6
[8] = tested on: Mycoplasma pneumoniae M52; test: Killing assay, strain M52; conditions: AMP 30 μmol/L, 3 days, initial 10^6 CFU/mL, triplicate, mean, saline 3.62×10^6
[9] = tested on: Mycoplasma pneumoniae M129-B7; test: Killing assay, strain M129-B7; conditions: AMP 30 μmol/L, 3 days, initial 10^6 CFU/mL, triplicate, mean, saline 3.79×10^6
[10] = tested on: Mycoplasma pneumoniae Bru; test: Colorimetric and biofilm assays, strain Bru; conditions: biofilm assay, p < 0.005
[11] = tested on: Mycoplasma pneumoniae Mac; test: Colorimetric and biofilm assays, strain Mac; conditions: biofilm assay, p < 0.005
[12] = tested on: Mycoplasma pneumoniae M52; test: Colorimetric and biofilm assays, strain M52; conditions: up to 30 μmol/L, Shirley-Williams test
[13] = previously reported; cited from earlier work
Mycoplasma pneumoniae FH [14] = test: Colorimetric assay (absorbance at 560 nm), strain FH; conditions: initial 10^5 CFU/mL, 0% CO2, up to 30 μmol/L
[15] = strains FH, M129-B7, and M52, up to 20 min
[16] = five strains, read every 2 min up to 20 min

Substance: H-KLLKKAGKLLKKAGKLLKKAG-NH2 [Stripe]
- PI fluorescence compared with live Mp without peptide [1, 15]: fluorescence of live Mp without any peptides were higher
- MIC, Gram-positive, S. a. (Staphylococcus aureus): 12.5 µmol/L
- MIC, Gram-positive, S. e [2]: 1.56 µmol/L
- MIC, Gram-negative, E. c. (Escherichia coli): 3.13 µmol/L
- MIC, Gram-negative, P. a. (Pseudomonas aeruginosa): 1.56 µmol/L
- Killing assay result compared with saline (Mycoplasma pneumoniae FH [3]): limited influence on the growth
- Cell numbers (CFU/mL) after treatment with antimicrobial peptides, killing assay (Mycoplasma pneumoniae FH [3]): 3.71×10^6 CFU/mL
- Effect in the biofilm assay (Mycoplasma pneumoniae FH [4]): no difference

Substance: H-KKKLAKLKLGAKLKLKGKLGA-NH2 [Random]
- PI fluorescence compared with live Mp without peptide [1, 16]: fluorescence of live Mp without any peptides were higher
- MIC, Gram-positive, S. a. (Staphylococcus aureus): 100 µmol/L
- MIC, Gram-positive, S. e [2]: 6.25 µmol/L
- MIC, Gram-negative, E. c. (Escherichia coli): 12.5 µmol/L
- MIC, Gram-negative, P. a. (Pseudomonas aeruginosa): 3.13 µmol/L
- Killing assay result compared with saline (Mycoplasma pneumoniae FH [3]): limited influence on the growth
- Cell numbers (CFU/mL) after treatment with antimicrobial peptides, killing assay (Mycoplasma pneumoniae FH [3]): 4.93×10^6 CFU/mL
- Effect in the biofilm assay (Mycoplasma pneumoniae FH [4]): no difference

Substance: H-GIKKFLKSZKKFVKZFK-NH2 [17base-Hybrid]
- Concentration with statistically significant effect in the biofilm assay [5]: ≤ 30 µmol/L
- PI fluorescence compared with live Mp without peptide [1, 16]: the fluorescence arose
- MIC, Gram-positive, S. a. (Staphylococcus aureus): 3.13 µmol/L
- MIC, Gram-positive, S. e [2]: 1.56 µmol/L
- MIC, Gram-negative, E. c. (Escherichia coli): 3.13 µmol/L
- MIC, Gram-negative, P. a. (Pseudomonas aeruginosa): 3.13 µmol/L
- Killing assay result compared with saline (Mycoplasma pneumoniae FH [3]): significant difference
- Cell numbers (CFU/mL) after treatment with antimicrobial peptides, killing assay (Mycoplasma pneumoniae FH [3]): 3.50×10^5 CFU/mL
- Titre (CFU/mL), killing assay [6]: 1.46×10^5 ^b CFU/mL
- Titre (CFU/mL), killing assay [7]: 5.80×10^4 ^b CFU/mL
- Titre (CFU/mL), killing assay [8]: 1.16×10^5 ^b CFU/mL
- Titre (CFU/mL), killing assay [9]: 2.21×10^5 ^b CFU/mL
- Concentration with statistically significant effect in the biofilm assay [10]: ≤ 30 µmol/L
- Concentration with statistically significant effect in the biofilm assay [11]: ≤ 30 µmol/L
- Effect in the biofilm assay [12]: slight drop of biofilm production
- Concentration with statistically significant effect in the biofilm assay (Mycoplasma pneumoniae FH [4]): 8 µmol/L

Substance: H-GIGKFLHSAKKFGKAFV-NH2 [Mag2-17base]
- PI fluorescence compared with live Mp without peptide [1, 16]: fluorescence of live Mp without any peptides were higher
- MIC, Gram-positive, S. a. (Staphylococcus aureus): 50 µmol/L
- MIC, Gram-positive, S. e [2]: 12.5 µmol/L
- MIC, Gram-negative, E. c. (Escherichia coli): 3.13 µmol/L
- MIC, Gram-negative, P. a. (Pseudomonas aeruginosa): 3.13 µmol/L
- Haemolysis (concentration with haemolytic effect) [13]: >100 µmol/L
- Killing assay result compared with saline (Mycoplasma pneumoniae FH [3]): limited influence on the growth
- Cell numbers (CFU/mL) after treatment with antimicrobial peptides, killing assay (Mycoplasma pneumoniae FH [3]): 4.86×10^6 CFU/mL
- Effect in the biofilm assay (Mycoplasma pneumoniae FH [4]): no difference

Substance: H-GIGKFLHSAKKFGKAFVGEIMNS-NH2 [Mag2, magainin 2]
- PI fluorescence compared with live Mp without peptide [1, 16]: fluorescence of live Mp without any peptides were higher
- MIC, Gram-positive, S. a. (Staphylococcus aureus): 100 µmol/L
- MIC, Gram-positive, S. e [2]: 25 µmol/L
- MIC, Gram-negative, E. c. (Escherichia coli): 3.13 µmol/L
- MIC, Gram-negative, P. a. (Pseudomonas aeruginosa): 12.5 µmol/L
- Killing assay result compared with saline (Mycoplasma pneumoniae FH [3]): limited influence on the growth
- Cell numbers (CFU/mL) after treatment with antimicrobial peptides, killing assay (Mycoplasma pneumoniae FH [3]): 4.06×10^6 CFU/mL
- Effect in the colorimetric assay (Mycoplasma pneumoniae FH [14]): no difference
- Concentration with statistically significant effect in the biofilm assay (Mycoplasma pneumoniae FH [4]): 30 µmol/L

Substance: H-GIGKFLHSUKKFGKUFV-NH2 [17base-Aib]
- PI fluorescence compared with live Mp without peptide [1, 16]: slight fluorescent shift
- PI fluorescence compared with live Mp without peptide [1, 15]: fluorescence of live Mp without any peptides were higher
- MIC, Gram-positive, S. a. (Staphylococcus aureus): 12.5 µmol/L
- MIC, Gram-positive, S. e [2]: 3.13 µmol/L
- MIC, Gram-negative, E. c. (Escherichia coli): 3.13 µmol/L
- MIC, Gram-negative, P. a. (Pseudomonas aeruginosa): 1.56 µmol/L
- Haemolysis (concentration with haemolytic effect) [13]: >100 µmol/L
- Killing assay result compared with saline (Mycoplasma pneumoniae FH [3]): limited influence on the growth
- Cell numbers (CFU/mL) after treatment with antimicrobial peptides, killing assay (Mycoplasma pneumoniae FH [3]): 3.75×10^6 CFU/mL
- Effect in the biofilm assay (Mycoplasma pneumoniae FH [4]): no difference

Substance: H-GIGKFLHSZKKFGKZFV-NH2 [17base-Ac6c]
- PI fluorescence compared with live Mp without peptide [1, 16]: the fluorescence arose
- MIC, Gram-positive, S. a. (Staphylococcus aureus): 3.13 µmol/L
- MIC, Gram-positive, S. e [2]: 3.13 µmol/L
- MIC, Gram-negative, E. c. (Escherichia coli): 3.13 µmol/L
- MIC, Gram-negative, P. a. (Pseudomonas aeruginosa): 6.25 µmol/L
- Haemolysis (concentration with haemolytic effect) [13]: 3 µmol/L
- Killing assay result compared with saline (Mycoplasma pneumoniae FH [3]): significant difference
- Cell numbers (CFU/mL) after treatment with antimicrobial peptides, killing assay (Mycoplasma pneumoniae FH [3]): 1.11×10^6 CFU/mL
- Concentration with statistically significant effect in the biofilm assay (Mycoplasma pneumoniae FH [4]): 30 µmol/L
